Patent publication US20230248735A1, “COMPOSITIONS FOR PREVENTING OR TREATING CHRONIC OBSTRUCTIVE PULMONARY DISEASES (COPD)” (Chong Kun Dang Pharmaceutical Corp., priority 2019, published 2023)

Key:
A549 cells = assay: Inhibitory effect on TGF-β1-induced EMT (E-Cad and N-Cad expression, Western blot); assay type: cell-based; conditions: 5 ng/mL TGF-β1, 48 hours, compared to Vhcl (TGF-β1), FIG. 5
Experimental: (§1) In order to confirm an effect of the compound according to the present invention on preventing or treating chronic obstructive pulmonary disease, an expression of an epithelial marker protein (E-Cad) and a mesenchymal marker protein (N-Cad) was analyzed. A549 cells were cultured in RPMI-1640 medium containing 10% fetal bovine serum (FBS) and 1% penicillin-streptomycin (P/S). The 1.5×10^5 cells were plated in a 6-well plate and incubated overnight. The cells were cultured with 5 ng/mL of recombinant human transforming growth factor beta 1 (TGF-β1) to induce an epithelial-to-mesenchymal transition (EMT). TGF-β1 was diluted with RPMI-1640 (1% FBS, 1% P/S) and incubated with the cells for 48 hours. The 500 µL of culture medium was loaded on a centrifugal filter (Amicon® Ultra-0.5 mL) and centrifuged at 14,000×g for 10 minutes. The enriched culture medium was boiled with 15 µL of 4X sample buffer at 100° C. for five minutes and analyzed by using the Western blot. The cells were lysed by using an RIPA buffer containing a protease inhibitor cocktail and a phosphatase inhibitor cocktail. A lysate was incubated on ice for three minutes and centrifuged at 13,000×g, 4° C. for 20 minutes. A supernatant was quantified by using a BCA protein assay kit and analyzed by the Western blot. The prepared sample was loaded on NuPAGE Novex 4-12% Bis-Tris gel and decomposed at 120 V Proteins were transferred to a nitrocellulose membrane by using an iBlot machine. The membrane was blocked by using EzBlock Chemi according to the manufacturer’s instructions. Antibodies such as E-cadherin (E-Cad), N-cadherin (N-cad), Fibronectin-EDA (FN-EDA), etc., were used. After reaction with a horseradish peroxidase (HRP)-conjugated secondary antibody, immunoreactive proteins were visualized by using Amersham® ECL select® Western blot detection reagent, and detected by ChemiDoc® MP imaging system. The intensity of the band was quantified with ImageJ software and normalized to β-actin.

FN-EDA in A549 cells = assay: FN-EDA protein reduction in TGF-β1-treated cells (Western blot); assay type: cell-based; conditions: 5 ng/mL TGF-β1, 48 hours, compared to Vhcl (TGF-β1), FIG. 6
Experimental: as §1
In order to confirm an effect of the compound according to the present invention on preventing or treating chronic obstructive pulmonary disease, an expression of FN-EDA, a key extracellular matrix (ECM) protein, was analyzed. The analysis was performed by the same method as described in Example 2 above.

[1] = test system: mouse with induced COPD (smoking + Poly I:C); assay: Evaluation of immune cell infiltration in H&E-stained lung tissue sections, smoking + Poly I:C COPD model; assay type: in vivo, C57BL/6 mouse; conditions: 30 mg/kg P.O. Q.D.; compared to smoking + Poly I:C (SM+no drug); FIG. 2
Text: A C57BL/6 mouse (female, seven weeks old) was placed in a sealed smoking box and exposed to cigarette smoke for a certain period of time to induce COPD disease. Specifically, the mouse was put into the smoking box, after which a cigarette was lit and its filter was connected to a tube under a negative pressure, so that cigarette smoke could be continuously produced. Then, the smoking box was blocked, so that the mouse was forced to inhale the cigarette smoke while breathing in. The mouse was allowed to smoke for a total of four weeks. The mouse was exposed to one, two and four cigarettes once on the first, second and third days of the first week, respectively, and again exposed to four cigarettes twice and three times on the fourth and fifth days, respectively. After that, the mouse was exposed to four cigarettes three times a day for the remaining three weeks. […]
In order to confirm an effect of the compound according to the present invention on preventing or treating chronic obstructive pulmonary disease, a degree of immune cell infiltration was evaluated. […] According to a reference image of FIG. 1, a degree of cellular infiltration was determined as a score of 0 to 3, and the score was measured by observing slides for each group [FIG. 1: 0-none, 1-mild, 2-moderate, and 3-severe].

[2] = test system: mouse with induced COPD (smoking + Poly I:C); assay: Analysis of bronchoalveolar lavage fluid (BAL fluid) cell counts, smoking + Poly I:C COPD model; assay type: in vivo, C57BL/6 mouse; conditions: 30 mg/kg P.O. Q.D.; compared with SM+no drug; FIG. 3
Text: (§2) A C57BL/6 mouse (female, seven weeks old) was placed in a sealed smoking box and exposed to cigarette smoke for a certain period of time to induce COPD disease. Specifically, the mouse was put into the smoking box, after which a cigarette was lit and its filter was connected to a tube under a negative pressure, so that cigarette smoke could be continuously produced. Then, the smoking box was blocked, so that the mouse was forced to inhale the cigarette smoke while breathing in. The mouse was allowed to smoke for a total of four weeks. The mouse was exposed to one, two and four cigarettes once on the first, second and third days of the first week, respectively, and again exposed to four cigarettes twice and three times on the fourth and fifth days, respectively. After that, the mouse was exposed to four cigarettes three times a day for the remaining three weeks. Poly I:C (polyinosinic:polycytidylic acid) was administered into a nasal cavity of the anesthetized mouse twice a week in the third and fourth weeks during induction of smoking, so that a model of smoking + Poly I:C COPD (chronic obstructive pulmonary disease) was induced.
(§3) In order to confirm a drug administration effect of the compound according to the present invention, mice with induced COPD were divided into each group of six mice, and each of the groups was is classified as shown in a following table 1 according to an administered substance [vehicle (Veh), compound 374 (SM+1), or compound 458 (SM+2)], a route of administration [oral administration (P.O.)], and an administration interval [daily (Q.D.)].
In order to confirm an effect of the compound according to the present invention on preventing or treating chronic obstructive pulmonary disease, bronchoalveolar lavage fluid (BAL fluid) was analyzed. The 2 mL of the BAL fluid was separated from the mice of each group and centrifuged. After that, the resulting fluid was suspended in a phosphate buffer solution (PBS), after which the number of total cells was counted, and 2 × 10^5 cells were attached to a slide through a cytospin. After staining with a diff-quick stain kit, the resulting cells were classified into macrophage, neutrophil, etc. based on the properties of the stained cells, so as to count a total of 300 cells, after which a rate of respective cells was calculated with regard to the number of total cells to make a comparison among the groups.

[3] = test system: IL-6, IFN-γ, MCP-1, TNF-α; assay: Expression of inflammatory cytokines in lung tissue by real-time PCR, smoking + Poly I:C COPD model; assay type: in vivo, C57BL/6 mouse; conditions: 30 mg/kg P.O. Q.D., compared with SM+no drug, FIG. 4
Text: as §2, §3
In order to confirm an effect of the compound according to the present invention on preventing or treating chronic obstructive pulmonary disease, an expression of inflammatory cytokines in lung tissues was analyzed. Lungs were removed from mice of each group, after which RNA was isolated from the lung tissues. For each RNA, cDNA synthesis was performed by using a reverse transcriptase, after which an expression of inflammatory cytokine markers such as IL-6, IFN-y, MCP-1, and TNF-α was analyzed through real-time PCR, so as to compare a degree of induced inflammation among the groups. In this case, a sequence of a primer used in the experiment is the same as shown in a following table 2. (* P < 0.05, ** P < 0.01, and *** P < 0.001)

Row | Compound | expression of E-Cad (epithelial marker protein) (A549 cells) | expression of N-Cad (mesenchymal marker protein) (A549 cells) | expression of key ECM protein FN-EDA (FN-EDA in A549 cells) | cellular infiltration score (0 to 3) in lung tissue [1] | number of macrophages in BAL fluid [2] | number of neutrophils in BAL fluid [2] | number of total cells in BAL fluid [2] | expression of IFN-y in lung tissue [3] | expression of IL-6 in lung tissue [3] | expression of MCP-1 in lung tissue [3] | expression of TNF-α in lung tissue [3]
1 | O=C(NO)c1ccc(CN(C(=O)N2CCOCC2)c2cccc(C(F)(F)F)c2)cc1 [Compound 374, N-(4-(hydroxycarbamoyl)benzyl)-N-(3-(trifluoromethyl)phenyl)morpholine-4-carboxamide] | remarkable increase | remarkable decrease | remarkable decrease |  |  |  |  |  |  |  | 
2 | O=C(NO)c1ccc(CN(C(=O)N2CCOCC2)c2ccc(F)cc2F)cc1 [Compound 413, N-(2,4-difluorophenyl)-N-(4-(hydroxycarbamoyl)benzyl)morpholine-4-carboxamide] | remarkable increase | remarkable decrease | remarkable decrease |  |  |  |  |  |  |  | 
3 | O=C(NO)c1ccc(CN(C(=O)N2CCOCC2)c2ccc(F)c(Cl)c2)cc1 [Compound 458, N-(3-chloro-4-fluorophenyl)-N-(4-(hydroxycarbamoyl)benzyl)morpholine-4-carboxamide] | remarkable increase | remarkable decrease | remarkable decrease |  |  |  |  |  |  |  | 
4 | COc1cccc(N(Cc2ccc(C(=O)NO)cc2)C(=O)N2CCOCC2)c1 [Compound 484, N-(4-(Hydroxycarbamoyl)Benzyl)-N-(3-Methoxyphenyl)Morpholine-4-Carboxamide] | remarkable increase | remarkable decrease | remarkable decrease |  |  |  |  |  |  |  | 
5 | O=C(NO)c1ccc(CN(C(=O)N2CCOCC2)c2cccc(F)c2)cc1 [Compound 530] | remarkable increase | remarkable decrease | remarkable decrease |  |  |  |  |  |  |  | 
6 | O=C(NO)c1ccc(CN(C(=O)N2CCCOCC2)c2cccc(F)c2)cc1 [Compound 652] | remarkable increase | remarkable decrease | remarkable decrease |  |  |  |  |  |  |  | 
7 | O=C(NO)c1ccc(CN(C(=O)N2CCOCC2)c2cccc(C(F)(F)F)c2)cc1 [SM+1, N-(4-(hydroxycarbamoyl)benzyl)-N-(3-(trifluoromethyl)phenyl)morpholine-4-carboxamide] |  |  |  | decrease | decreased | decreased | decreased | decreased | decreased | decreased | decreased
8 | O=C(NO)c1ccc(CN(C(=O)N2CCOCC2)c2ccc(F)c(Cl)c2)cc1 [SM+2, N-(3-chloro-4-fluorophenyl)-N-(4-(hydroxycarbamoyl)benzyl)morpholine-4-carboxamide] |  |  |  | decrease | decreased | decreased | decreased | decreased | decreased | decreased | decreased
